In patent publication US8703804B2, “Ryanodine receptor inhibitors and methods relating thereto” (UTI Limited Partnership, priority 2006, dated 2014):
pIC50: −log10 of the molar value. “Also recorded” adds a separate entry of the source. Read-outs that look alike come from different tables or passages of the source. Each block holds one molecule with its values, some of them ahead of it.

What was measured:
β-adrenergic receptor = assay: β-blocking: isoproterenol-induced phosphorylation of RyR2 at serine-2030 in rat cardiac myocytes (Western blot); format: cell-based; details: 200 nM isoproterenol; for concentration that completely blocks the β-adrenergic receptor: S2030 phosphorylation
Protocol: The β-adrenergic receptors were then stimulated by the addition of 200 nM isoproterenol (Iso) in the continued presence of drugs for 30 min at 37° C. Whole cell lysates were prepared and used for Western blotting (WB) analyses.
It is known that stimulation of the β-adrenergic receptor (AR) by isoproterenol leads to the activation of the cAMP/protein kinase A (PKA) signaling pathway, which, in turn, results in the phosphorylation by PKA of various protein targets, including the RyR2 channel. RyR2 is specifically phosphorylated at the residue serine-2030 (S2030) upon β-AR stimulation by isoproterenol (Xiao et al., 2005). […] To do this, freshly isolated rat cardiac myocytes are pre-treated with various concentrations of the selected compounds for 5 min, followed by stimulation of the β-AR with 100-200 nM isoproterenol in the continued presence of the selected compounds for 30 min. Whole cell lysates are then prepared and used for determining the level of phosphorylation of RyR2 at S2030 by Western blotting using a site- and phospho-specific antibody against the phosphorylated S2030 site.

[1] = patients with heart failure; Miller, 2003; cited from earlier work
[2] = test system: SOICR in rat ventricular myocytes; assay: SOICR in rat ventricular myocytes (single cell Ca2+ imaging, fluo-4); format: cell-based; details: for pIC50: Rattus norvegicus, Ventricular myocyte
Protocol: Rat ventricular myocytes were loaded with a fluorescent Ca^2+ indicator, fluo 4-AM, and incubated at a high concentration of external Ca^2+ (10 mM) to induced SR Ca^2+ overload and SOICR, which manifests as Ca^2+ oscillations.
In the experiments shown in FIG. 3, rat ventricular myocytes were loaded with a fluorescent Ca^2+ indicator, fluo-4, and incubated at a high concentration of extracellular Ca^2+ (10 mM) to induce SR Ca^2+ overload and SOICR, which manifests as Ca^2+ waves/oscillations. These Ca^2+ oscillations were monitored by a single cell Ca^2+ imaging technique.
(§1) Further verification of whether these identified compounds also work in cardiac cells, the effect of these compounds on SOICR in rat ventricular myocytes may also be determined. Rat ventricular myocytes may be isolated according to the standard procedure using enzymatic digestion. Freshly isolated cells are loaded with a fluorescent Ca^2+ dye, fluo 4-AM, and bathed at high concentrations of extracellular Ca^2+ (5-10 mM) to induce SR Ca^2+ overload and SOICR. The intracellular Ca^2+ transients as a result of SOICR will be monitored by measuring the fluorescent intensity using a fluorescent microscope. Various concentrations of the selected compounds (10 nM to 100 μM) will be applied and the resulting changes in intracellular Ca^2+ transients will be determined and analyzed.

β-adrenergic receptors = details: Yao et al., 2003; read-out: IC50 of β-blocking activity; cited from earlier work
RyR2-R4496C KI mice = assay: Stress-induced ventricular tachycardia in RyR2-R4496C knock-in mice (CPVT model); format: in vivo, mouse; details: 16 mg/kg/day i.p. for 5 days, preliminary
Protocol: The electrocardiograms (ECG) of the R4496C KI mice were continuously monitored by using telemetric ECG recordings before and after the injection of epinephrine and caffeine. The incidence of ventricular tachycardia (VT) was assessed by determining the duration of VT occurring during a 2-min period (% of time).
In order to assess the efficacy of compounds of the present invention in suppressing cardiac arrhythmia at the animal level, genetically engineered knock-in mice were generated harboring RyR2 mutations that are associated with cardiac arrhythmia and sudden death. A heterozygous knock-in mouse line harboring the disease-causing RyR2 mutation, R4496C, has been prepared. Similar to patients who carry the mutation, the R4496C mutant mice are likely prone to stress-induced cardiac arrhythmia and sudden death. If this is the case, this R4496C mouse model may be used to test if compounds of the present invention are able to reduce the incidence of stress-induced cardiac arrhythmia and sudden death. Briefly, mutant mice will be pretreated with or without a positive compound identified above. Epinephrine and caffeine will be injected into the mutant mice to induce cardiac arrhythmia. Telemetric ECG recordings will be used to monitor the cardiac activity at rest and during epinephrine and caffeine perfusion. […]

RyR2 = assay: Initial investigations studying RyR2: suppression of SOICR by analogues; format: cell-based
RyR2-N4104K mutant = target: T1, RyR2-N4104K mutant (Mus musculus, UniProt E9Q401, N4103K); assay: SOICR in HEK293 cells expressing the N4104K RyR2 mutant; format: cell-based
T1 construct: expressed in transfected cells; host or cells: HEK293
T1 sequence (E9Q401 whole entry N4103K): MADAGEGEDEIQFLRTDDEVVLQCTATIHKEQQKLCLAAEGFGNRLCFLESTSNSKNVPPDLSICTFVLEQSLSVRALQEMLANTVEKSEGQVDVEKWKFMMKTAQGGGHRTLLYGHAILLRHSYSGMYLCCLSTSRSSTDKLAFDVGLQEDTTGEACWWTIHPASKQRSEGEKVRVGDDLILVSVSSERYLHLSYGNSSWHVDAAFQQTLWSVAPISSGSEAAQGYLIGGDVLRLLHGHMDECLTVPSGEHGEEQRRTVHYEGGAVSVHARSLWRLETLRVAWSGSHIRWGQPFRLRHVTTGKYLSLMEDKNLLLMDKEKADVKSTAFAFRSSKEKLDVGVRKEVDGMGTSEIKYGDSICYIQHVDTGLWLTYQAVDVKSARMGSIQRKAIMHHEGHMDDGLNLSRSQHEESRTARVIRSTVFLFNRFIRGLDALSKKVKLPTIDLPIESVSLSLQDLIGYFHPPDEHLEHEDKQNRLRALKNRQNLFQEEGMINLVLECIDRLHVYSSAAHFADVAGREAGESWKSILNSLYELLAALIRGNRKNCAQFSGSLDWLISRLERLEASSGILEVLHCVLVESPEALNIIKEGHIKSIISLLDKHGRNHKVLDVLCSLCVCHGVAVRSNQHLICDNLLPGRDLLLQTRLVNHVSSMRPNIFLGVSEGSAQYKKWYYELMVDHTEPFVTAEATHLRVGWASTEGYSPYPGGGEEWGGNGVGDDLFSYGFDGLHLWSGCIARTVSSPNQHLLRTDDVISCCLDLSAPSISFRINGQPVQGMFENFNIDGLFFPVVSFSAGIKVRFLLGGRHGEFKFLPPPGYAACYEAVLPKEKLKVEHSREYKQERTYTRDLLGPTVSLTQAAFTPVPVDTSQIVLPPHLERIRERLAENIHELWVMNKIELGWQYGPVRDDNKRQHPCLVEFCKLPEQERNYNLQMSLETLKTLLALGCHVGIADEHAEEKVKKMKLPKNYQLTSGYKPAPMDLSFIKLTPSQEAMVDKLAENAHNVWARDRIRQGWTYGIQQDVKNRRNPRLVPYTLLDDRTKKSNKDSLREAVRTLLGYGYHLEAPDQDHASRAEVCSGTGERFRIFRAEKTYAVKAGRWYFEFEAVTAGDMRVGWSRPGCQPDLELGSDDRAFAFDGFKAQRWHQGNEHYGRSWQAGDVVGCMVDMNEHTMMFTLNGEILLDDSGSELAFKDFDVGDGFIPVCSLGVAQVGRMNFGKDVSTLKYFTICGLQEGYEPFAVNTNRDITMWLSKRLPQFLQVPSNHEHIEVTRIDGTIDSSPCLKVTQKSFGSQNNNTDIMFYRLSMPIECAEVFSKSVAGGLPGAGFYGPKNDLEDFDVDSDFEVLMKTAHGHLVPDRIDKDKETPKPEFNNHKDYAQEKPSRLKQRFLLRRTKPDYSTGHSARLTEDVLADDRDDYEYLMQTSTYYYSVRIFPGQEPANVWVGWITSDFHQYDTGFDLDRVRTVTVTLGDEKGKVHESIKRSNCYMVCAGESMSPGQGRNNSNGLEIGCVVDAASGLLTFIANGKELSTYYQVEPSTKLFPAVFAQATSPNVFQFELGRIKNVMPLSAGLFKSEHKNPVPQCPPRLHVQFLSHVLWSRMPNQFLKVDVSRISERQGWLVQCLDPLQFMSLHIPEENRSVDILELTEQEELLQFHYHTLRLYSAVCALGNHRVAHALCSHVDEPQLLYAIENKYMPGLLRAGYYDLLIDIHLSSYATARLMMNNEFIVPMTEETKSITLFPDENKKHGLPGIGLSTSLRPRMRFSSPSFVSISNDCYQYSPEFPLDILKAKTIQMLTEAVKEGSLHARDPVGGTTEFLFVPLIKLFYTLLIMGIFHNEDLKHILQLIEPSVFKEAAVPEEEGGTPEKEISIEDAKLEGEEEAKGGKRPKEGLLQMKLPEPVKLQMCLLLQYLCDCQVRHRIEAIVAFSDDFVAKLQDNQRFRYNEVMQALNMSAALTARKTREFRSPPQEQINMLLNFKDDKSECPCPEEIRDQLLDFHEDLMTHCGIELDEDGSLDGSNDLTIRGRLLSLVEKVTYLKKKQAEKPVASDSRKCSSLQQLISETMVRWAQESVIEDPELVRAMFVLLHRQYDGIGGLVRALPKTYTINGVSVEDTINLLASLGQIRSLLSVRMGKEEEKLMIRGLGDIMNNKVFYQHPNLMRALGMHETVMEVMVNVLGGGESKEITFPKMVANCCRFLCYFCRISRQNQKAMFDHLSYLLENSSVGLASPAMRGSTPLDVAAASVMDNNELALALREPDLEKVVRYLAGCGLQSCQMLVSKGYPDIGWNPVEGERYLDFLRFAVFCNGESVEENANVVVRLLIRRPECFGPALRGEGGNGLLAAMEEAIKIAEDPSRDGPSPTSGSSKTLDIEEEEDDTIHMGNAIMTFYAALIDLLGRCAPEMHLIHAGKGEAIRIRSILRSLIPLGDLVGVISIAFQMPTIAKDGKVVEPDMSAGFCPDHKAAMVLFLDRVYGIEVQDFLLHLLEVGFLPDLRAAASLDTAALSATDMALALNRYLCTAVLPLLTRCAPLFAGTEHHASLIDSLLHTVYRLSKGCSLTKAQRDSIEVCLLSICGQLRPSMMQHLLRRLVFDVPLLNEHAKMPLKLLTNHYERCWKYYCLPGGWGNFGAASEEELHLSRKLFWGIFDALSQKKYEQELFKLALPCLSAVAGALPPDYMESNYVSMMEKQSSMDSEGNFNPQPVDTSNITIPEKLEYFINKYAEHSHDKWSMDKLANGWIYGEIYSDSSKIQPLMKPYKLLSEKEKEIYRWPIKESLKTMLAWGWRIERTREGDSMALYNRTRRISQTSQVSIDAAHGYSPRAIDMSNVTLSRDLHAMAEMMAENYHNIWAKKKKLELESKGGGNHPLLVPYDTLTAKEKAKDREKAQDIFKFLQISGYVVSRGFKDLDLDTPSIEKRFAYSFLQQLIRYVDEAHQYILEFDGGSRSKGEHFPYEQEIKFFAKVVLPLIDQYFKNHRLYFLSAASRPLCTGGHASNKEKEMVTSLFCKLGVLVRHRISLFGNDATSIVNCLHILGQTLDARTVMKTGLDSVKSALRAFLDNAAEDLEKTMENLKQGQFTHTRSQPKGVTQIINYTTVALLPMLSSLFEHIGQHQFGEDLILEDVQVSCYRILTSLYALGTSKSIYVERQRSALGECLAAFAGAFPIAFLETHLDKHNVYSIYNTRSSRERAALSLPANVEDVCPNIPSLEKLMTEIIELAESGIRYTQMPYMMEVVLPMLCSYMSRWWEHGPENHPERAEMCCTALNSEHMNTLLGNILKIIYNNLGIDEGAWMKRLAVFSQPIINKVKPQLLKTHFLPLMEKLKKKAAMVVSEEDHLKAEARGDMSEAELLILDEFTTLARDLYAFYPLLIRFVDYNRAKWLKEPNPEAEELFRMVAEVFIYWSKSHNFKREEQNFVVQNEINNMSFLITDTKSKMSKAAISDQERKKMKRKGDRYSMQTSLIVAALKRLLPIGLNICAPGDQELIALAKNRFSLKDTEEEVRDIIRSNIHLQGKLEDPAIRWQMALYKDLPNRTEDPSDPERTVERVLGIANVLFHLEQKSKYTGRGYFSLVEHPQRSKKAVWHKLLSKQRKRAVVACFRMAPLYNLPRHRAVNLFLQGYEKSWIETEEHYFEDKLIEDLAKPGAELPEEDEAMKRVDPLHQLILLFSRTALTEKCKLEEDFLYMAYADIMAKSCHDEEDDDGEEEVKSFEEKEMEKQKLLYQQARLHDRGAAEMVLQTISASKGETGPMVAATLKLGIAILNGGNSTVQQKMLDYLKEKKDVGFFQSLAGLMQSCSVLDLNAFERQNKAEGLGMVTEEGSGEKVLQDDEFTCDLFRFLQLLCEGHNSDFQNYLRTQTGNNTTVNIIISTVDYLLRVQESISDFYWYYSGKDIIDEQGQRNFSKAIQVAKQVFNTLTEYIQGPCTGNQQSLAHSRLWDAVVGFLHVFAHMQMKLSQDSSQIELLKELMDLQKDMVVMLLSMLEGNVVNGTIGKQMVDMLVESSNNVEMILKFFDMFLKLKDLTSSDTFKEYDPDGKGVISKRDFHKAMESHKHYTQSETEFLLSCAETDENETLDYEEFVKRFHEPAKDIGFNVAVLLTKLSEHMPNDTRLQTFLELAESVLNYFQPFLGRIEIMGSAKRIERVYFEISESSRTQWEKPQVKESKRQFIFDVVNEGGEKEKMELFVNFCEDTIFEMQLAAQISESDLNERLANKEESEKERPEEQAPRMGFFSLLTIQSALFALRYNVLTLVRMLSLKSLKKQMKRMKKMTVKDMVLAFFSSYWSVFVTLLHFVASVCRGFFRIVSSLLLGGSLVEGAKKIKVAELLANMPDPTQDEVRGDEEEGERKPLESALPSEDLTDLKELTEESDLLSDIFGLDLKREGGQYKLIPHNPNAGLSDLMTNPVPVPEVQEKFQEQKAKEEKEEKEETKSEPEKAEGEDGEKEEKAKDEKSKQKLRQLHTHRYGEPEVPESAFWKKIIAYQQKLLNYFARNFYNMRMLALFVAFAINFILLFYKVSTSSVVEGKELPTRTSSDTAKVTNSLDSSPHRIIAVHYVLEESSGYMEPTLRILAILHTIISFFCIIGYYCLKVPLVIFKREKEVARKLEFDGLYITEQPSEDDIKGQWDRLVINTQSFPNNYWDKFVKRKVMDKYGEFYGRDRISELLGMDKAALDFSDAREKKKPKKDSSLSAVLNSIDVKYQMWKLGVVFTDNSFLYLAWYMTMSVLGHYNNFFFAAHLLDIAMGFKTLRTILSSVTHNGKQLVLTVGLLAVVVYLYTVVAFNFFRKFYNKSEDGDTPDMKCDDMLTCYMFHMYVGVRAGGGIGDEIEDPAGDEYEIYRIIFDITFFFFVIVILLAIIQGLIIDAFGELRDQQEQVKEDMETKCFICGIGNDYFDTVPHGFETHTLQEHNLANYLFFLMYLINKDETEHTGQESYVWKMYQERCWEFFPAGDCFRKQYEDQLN
Protocol: (§2) Intracellular Ca^2+ transients were monitored using single cell Ca^2+ imaging.
(§3) HEK293 cells may be loaded with a fluorescent Ca^2+ dye, fura-2-AM. SOICR, which manifests in the form of Ca^2+ oscillations, is continuously monitored by measuring the fluorescent changes using the single cell Ca^2+ imaging technique. Cells will be perfused with increasing concentrations (10 nM to 100 μM) of the compound. The frequency and amplitude of Ca^2+ oscillations under each condition will be determined and analyzed. Compounds that inhibit SOICR are expected to reduce the frequency of Ca^2+ oscillations, or abolish Ca^2+ oscillations.
as §1, with “Freshly isolated cells are loaded with a fluorescent Ca^2+ dye, fluo 4-AM, and bathed at high concentrations of extracellular Ca^2+ (5-10 mM) to induce SR Ca^2+ overload and SOICR.” left out

RyR2 channel [3] = target: RyR2 channel (Homo sapiens, UniProt Q92736); details: Honen et al., 2003; cited from earlier work
mutant RyR2 channels = target: T2, mutant RyR2 channels (Mus musculus, UniProt E9Q401, R4495C); assay: [3H]ryanodine binding, basal channel activity of RyR2; format: biochemical
T2 construct: expressed in transfected cells; host or cells: HEK293 (cell lysate, detergent-solubilised)
T2 sequence (E9Q401 whole entry R4495C): as the sequence (E9Q401 whole entry N4103K) above, with K4103N, R4495C counted along it
Source text: as §2
[^3H]Ryanodine binding has been widely used as a functional assay for assessing the activity of the RyR2 channel. […] These [^3H]ryanodine binding studies reveal whether suppression of SOICR by a compound is mediated by inhibition of the RyR2 channel activity.

RyR2-R4496C mutant = target: T3, RyR2-R4496C mutant (Mus musculus, UniProt E9Q401, R4495C); assay: SOICR in HEK293 cells expressing RyR2-R4496C mutant (fura-2 single cell Ca2+ imaging); format: cell-based; details: up to 500 μM
T3 construct: expressed in transfected cells; host or cells: HEK293
T3 sequence (E9Q401 whole entry R4495C): as the sequence (E9Q401 whole entry N4103K) above, with K4103N, R4495C counted along it
Source text: as §2
This bioassay takes advantage of the finding that HEK293 cells expressing RyR2 mutants associated with cardiac arrhythmia and sudden death, readily display SOICR at elevated extracellular Ca^2+. […] This assay may be employed to determine the dose-dependent effect of each proposed compound on SOICR.
as §3

RyR2 channel [4] = target: T4, RyR2 channel (Mus musculus, UniProt E9Q401, R4495C); assay: Ca2+ dependence of [3H]ryanodine binding (sensitivity of RyR2 to Ca2+ activation, CICR); format: biochemical; details: 300 μM (FIG. 4D)
T4 construct: expressed in transfected cells; host or cells: HEK293 (cell lysate, detergent-solubilised)
T4 sequence (E9Q401 whole entry R4495C): as the sequence (E9Q401 whole entry N4103K) above, with K4103N, R4495C counted along it
Source text: as §2
Alternatively, the effect of compounds on CICR may be determined using [^3H]ryanodine binding. As CICR is dependent, to a large extent, on the sensitivity of the RyR2 channel to activation by Ca^2+, the effect of a compound on CICR may be determined by assessing the impact of the compound on the sensitivity of the RyR2 channel to Ca^2+ activation. To this end, [^3H]ryanodine binding to the RyR2 channel in a wide range of Ca^2+ concentrations may be measured. The sensitivity (EC50) of [^3H]ryanodine binding to RyR2 in the absence and presence of a particular compound may be determined.

Structure (SMILES): COc1ccccc1OCCNCC(O)COc1cccc2[nH]c3ccccc3c12 (stereo not shown) [Carvedilol]
concentration that completely blocks the β-adrenergic receptor (β-adrenergic receptor): 100 nM
absolute reduction in mortality [1]: ~7%
pIC50 ([2]; read-out: IC50 for suppressing SOICR): ~5.00
pIC50 ([2]; read-out: IC50 for suppressing the frequency of SOICR): ~5.00
concentration that abolishes SOICR ([2]; rat ventricular myocytes, 10 mM extracellular Ca2+): 50 µM
pIC50 (β-adrenergic receptors): 8.70 to 9.00
ventricular tachycardia after epinephrine (2 mg/kg) and caffeine (120 mg/kg) (RyR2-R4496C KI mice): abolish epinephrine and caffeine-induced ventricular tachycardia; also recorded: no VT was observed

Structure (SMILES): COc1cc(Cl)c(Cl)cc1OCCNCC(O)COc1cccc2[nH]c3ccccc3c12 (stereo not shown) [Compound 1b]
concentration that completely blocks the β-adrenergic receptor (β-adrenergic receptor): 100 nM
suppression of SOICR (RyR2): activity comparable to that of carvedilol (1a)

Structure (SMILES): OC(CNCCOc1cc(Cl)c(Cl)cc1Cl)COc1cccc2[nH]c3ccccc3c12 (stereo not shown) [Compound 1c]
suppression of SOICR (RyR2): inactive

Structure (SMILES): OC(CNCCOC1CCCCC1)COc1cccc2[nH]c3ccccc3c12 (stereo not shown) [Compound 1d]
suppression of SOICR (RyR2): inactive; also recorded: limited effect

Structure (SMILES): COc1ccccc1OCCN1CC(COc2cccc3[nH]c4ccccc4c23)OCC1=O (stereo not shown) [Compound 2a]
β-blocking activity (block of isoproterenol-induced RyR2 S2030 phosphorylation) (β-adrenergic receptor; 1-1000 nM, preliminary, listed as VK-II-36): little β-blocking activity; also recorded: does not block the β-adrenergic receptor
effect on SOICR (RyR2-N4104K mutant; HEK293 RyR2-N4104K, 2 mM [Ca2+]o, various concentrations): abolish SOICR
concentration at which SOICR is suppressed (RyR2-N4104K mutant; HEK293 cells (FIG. 5)): ~30 µM
ventricular tachycardia after epinephrine (2 mg/kg) and caffeine (120 mg/kg) (RyR2-R4496C KI mice; listed as VK-II-36): abolish epinephrine and caffeine-induced ventricular tachycardia; also recorded: no VT was observed

Structure (SMILES): COc1ccccc1OCCN1CCOC(COc2cccc3[nH]c4ccccc4c23)C1 (stereo not shown) [Compound 3a]
suppression of SOICR (RyR2): limited effect

Structure (SMILES): c1ccc2c(c1)[nH]c1cccc(OCC3CN(CCOC4CCCCC4)CCO3)c12 (stereo not shown) [Compound 3d]
suppression of SOICR (RyR2): limited effect

Structure (SMILES): COc1ccccc1OCCN1CC(COc2cccc3[nH]c4ccccc4c23)OC1=O (stereo not shown) [Compound 4a]
suppression of SOICR (RyR2): limited effect

Structure (SMILES): CC/C=C\C/C=C\C/C=C\C/C=C\C/C=C\C/C=C\CCC(=O)O [DHA, docosahexenoic acid]
effect on RyR2 channel activity (RyR2 channel [3]): inhibit RyR2 channel activity

Structure (SMILES): CC/C=C\C/C=C\C/C=C\C/C=C\C/C=C\CCCC(=O)O [EPA, eicosapentenoic acid]
effect on RyR2 channel activity (RyR2 channel [3]): inhibit RyR2 channel activity

effect on channel activity of RyR2 (mutant RyR2 channels; summary statement): absolutely no effect on RyR2
effect on Ca2+ dependence of [3H]ryanodine binding / sensitivity of RyR2 to Ca2+ activation (RyR2 channel [4]): no significant effect
Structure (SMILES): CC(C)NCC(O)c1ccc(NS(C)(=O)=O)cc1 (stereo not shown) [Sotalol, sotalol]
effect on basal channel activity ([3H]ryanodine binding) (mutant RyR2 channels; cell lysates, 3 nM Ca2+, various concentrations of drugs (FIG. 4C)): not sotalol, inhibited basal channel activity
effect on SOICR ([2]; rat ventricular myocytes, up to 300 μM): no effect; also recorded: does not suppress SOICR at all
effect on SOICR (RyR2-R4496C mutant): no significant effect; also recorded: not sotalol inhibited SOICR
